Assay results published in publication PMC10763561, “Red-light modulated ortho-chloro azobenzene photoswitch for peptide stapling via aromatic substitution” (RSC Chemical Biology, 2023).
Like-named read-outs stand apart in the source and are kept apart here. Starred links: 1 amine or outer side, 2 acyl side, 3 side chain; linkers in the order of their positions; H or OH if unused. Positions of bridges follow the written chain, without caps; N, C: chain ends. Residues, ends and D or L forms follow the SMILES beside them. X1 = Clc1cc([*:1])cc(Cl)c1N=Nc1c(Cl)cc([*:2])cc1Cl

How the values were obtained:
[1] = Serum stability study monitored by HPLC; assay type: in vitro ADME, human; details: 37 °C, HPLC 220 nm
Description: The stability of SP1 in human serum was investigated and compared to the stability of its linear precursor P1 and the parent PMI (Fig. 6). The stability of the peptides at 37 °C in human serum was monitored throughout 5 days by HPLC.
Fig. 6 Stability of the precursor peptide P1, the parent PMI and SP1 in human serum at 37 °C, over 5 days, monitored by HPLC at 220 nm. […]
6.2 Serum Stability Studies
P1 and SP1 (10 μL, 10 mM stock in DMSO) were incubated with PBS (1x, 500 μL), human serum (50 μL) and caffeine (10 μL of a 11.25 mg/mL solution in MQ water) at 37 °C for 5 days. At specific intervals, aliquots (25 μL) of the reaction mixture were taken, flash frozen in liquid nitrogen and stored at -20 °C prior to analysis on the same day. Upon unfreezing, the samples were quenched with 25 μL of 96% ethanol and 25 μL of DMSO. The samples were spun at 13400 g for 10 minutes and the supernatant analysed by HPLC analysis, with a 5-95% B gradient (A: 0.05% (v/v) TFA in H2O, B: 0.05% (v/v) TFA in MeCN) over 18 minutes at 220 nm.
Caffeine was used as an internal standard to enable quantification of degradation over time. The experiment was performed in duplicates (Table S2-4). […]

[2] = target: T1, p53-interacting domain of human MDM2 (MDM2 6-125) (Homo sapiens, UniProt Q00987); assay: MDM2 direct fluorescence polarisation binding assay; details: direct FP, 15 nM tracer, MDM2 titrated from 9.75 uM, 18-point, PBS 0.05% Tween-20 3% DMSO, 1:1 binding model
T1 construct: human MDM2 (MDM26–125)
Description: To assess the binding affinity of the precursor peptide P1 and the photoswitchable stapled peptide SP1 for MDM2, a competitive fluorescence polarisation (FP) assay was carried out using the p53-interacting domain of human MDM2 (MDM26–125). […] The inhibitory constants (Ki) for all peptides were subsequently determined. […] This can be attributed the loss in α-helicity observed for P1, in comparison to that of PMI,[34] measured by CD analysis. To induce in situ isomerisation, SP1 was irradiated with red or purple light in FP buffer prior to commencing the experiment. […] The Ki values for each isomer were determined from their corresponding inflection points in the fitted sigmoidal curve. […]
The half-life of the metastable cis SP1 form in FP assay buffer was determined by analytical HPLC analysis (Figure S3). […]
P1 and SP1 (10 μL, 10 mM stock in DMSO) were incubated with PBS (1x, 500 μL), human serum (50 μL) and caffeine (10 μL of a 11.25 mg/mL solution in MQ water) at 37 °C for 5 days. […] The samples were spun at 13400 g for 10 minutes and the supernatant analysed by HPLC analysis, with a 5-95% B gradient (A: 0.05% (v/v) TFA in H2O, B: 0.05% (v/v) TFA in MeCN) over 18 minutes at 220 nm.
Caffeine was used as an internal standard to enable quantification of degradation over time. […]
7 Fluorescence Polarisation (FP) Assay […]
7.1 MDM2 Fluorescence Polarisation Binding Assay […]

[3] = human, human serum diluted in PBS, replicate 1, human serum 50 uL in PBS 500 uL, caffeine internal standard, read-out: Normalised Linker % (peptide remaining)
[4] = human, human serum diluted in PBS, replicate 2, human serum 50 uL in PBS 500 uL, caffeine internal standard, read-out: Normalised Linker % (peptide remaining)
[5] = human, human serum diluted in PBS, 24 h, replicate 2, human serum 50 uL in PBS 500 uL, caffeine internal standard, read-out: Normalised Linker % (peptide remaining)

T1 sequence (Q00987 6-125 limits assumed): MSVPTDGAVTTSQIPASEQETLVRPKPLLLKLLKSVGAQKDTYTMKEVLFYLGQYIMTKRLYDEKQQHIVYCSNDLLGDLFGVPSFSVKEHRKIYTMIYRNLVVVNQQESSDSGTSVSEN

CC(=O)N[C@H](C(=O)N[C@@H](CO)C(=O)N[C@@H](Cc1ccccc1)C(=O)N[C@@H](C)C(=O)N[C@@H](CS)C(=O)N[C@@H](Cc1ccc(O)cc1)C(=O)N[C@@H](Cc1c[nH]c2ccccc12)C(=O)N[C@@H](CC(N)=O)C(=O)NCC(=O)N[C@@H](CC(C)C)C(=O)N[C@@H](CO)C(=O)N[C@@H](CS)C(N)=O)[C@@H](C)O [Peptide P1] (Ac-TSFACYWNGLSC-NH2)
Normalised Linker % (peptide remaining) ([1]; 1 h, replicate 2, without the addition of TCEP, human serum 50 uL in PBS 500 uL, caffeine internal standard): 0.000%
remaining at 0.5 h, 175 µM ([1]; human serum diluted in PBS, 0.5 h, replicate 1, without the addition of TCEP, human serum 50 uL in PBS 500 uL, caffeine internal standard, read-out: Normalised Linker % (peptide remaining)): 12.8%
remaining at 1 h, 175 µM ([1]; human serum diluted in PBS, 1 h, replicate 1, without the addition of TCEP, human serum 50 uL in PBS 500 uL, caffeine internal standard, read-out: Normalised Linker % (peptide remaining)): 0%

CSCC[C@H](NC(=O)[C@H](Cc1ccccc1)NC(=O)[C@H](CCCNC(=N)N)NC(=O)c1ccc2c(c1)C(=O)OC21c2ccc(N(C)C)cc2Oc2cc(N(C)C)ccc21)C(=O)N[C@@H](CC(=O)O)C(=O)N[C@@H](Cc1ccc(O)cc1)C(=O)N[C@@H](Cc1c[nH]c2ccccc12)C(=O)N[C@@H](CCC(=O)O)C(=O)NCC(=O)N[C@@H](CC(C)C)C(N)=O [FP tracer peptide, TAMRA-RFMDYWEGL-NH2]
Kd [2]: 7.6 nM

Ac-TSFAEYWNNLSP-NH2 [PMI, reference compound]
Normalised Linker % (peptide remaining) ([1]; 24 h, replicate 1, human serum 50 uL in PBS 500 uL, caffeine internal standard): 0.000%
remaining at 1 h, 175 µM ([1]; human, human serum diluted in PBS, 1 h, replicate 1, human serum 50 uL in PBS 500 uL, caffeine internal standard, read-out: Normalised Linker % (peptide remaining)): 87.2%
remaining at 1 h, 175 µM ([1]; human, human serum diluted in PBS, 1 h, replicate 2, human serum 50 uL in PBS 500 uL, caffeine internal standard, read-out: Normalised Linker % (peptide remaining)): 97.2%
remaining at 3 h, 175 µM [1, 3]: 72.8%
remaining at 3 h, 175 µM [1, 4]: 76.2%
remaining at 6 h, 175 µM [1, 3]: 47.4%
remaining at 6 h, 175 µM [1, 4]: 32.7%
remaining at 9 h, 175 µM [1, 3]: 23.2%
remaining at 9 h, 175 µM [1, 4]: 11.3%
remaining at 24 h, 175 µM [1, 5]: 0%

CC(=O)N[C@H](C(=O)N[C@@H](CO)C(=O)N[C@@H](Cc1ccccc1)C(=O)N[C@@H](C)C(=O)N[C@H]1CSc2cc(Cl)c(c(Cl)c2)N=Nc2c(Cl)cc(cc2Cl)SC[C@@H](C(N)=O)NC(=O)[C@H](CO)NC(=O)[C@H](CC(C)C)NC(=O)CNC(=O)[C@H](CC(N)=O)NC(=O)[C@H](Cc2c[nH]c3ccccc23)NC(=O)[C@H](Cc2ccc(O)cc2)NC1=O)[C@@H](C)O [SP1] (Ac-TSFACYWNGLSC-NH2; linker 5-12 via X1)
stability in human serum compared with P1 and PMI ([1]; human serum, 5 days): markedly improved stability
remaining at 2 h, 175 µM [1, 3]: 88.6%
remaining at 2 h, 175 µM [1, 4]: 89%
remaining at 24 h, 175 µM ([1]; human, human serum diluted in PBS, 24 h, replicate 1, human serum 50 uL in PBS 500 uL, caffeine internal standard, read-out: Normalised Linker % (peptide remaining)): 82.9%
remaining at 24 h, 175 µM [1, 5]: 72.4%
remaining at 72 h, 175 µM [1, 3]: 79.2%
remaining at 72 h, 175 µM [1, 4]: 53.6%
remaining at 120 h, 175 µM [1, 3]: 82.4%
remaining at 120 h, 175 µM [1, 4]: 48%
